The supplement of paper PMC10307832

Key:
Assay in all cases: relative viability (nuclei count vs DMSO), 5 days (fraction); higher = more cells survive
RU-SKI 43 + Navitoclax = compound: CC[C@@H](C)CNCC(=O)N1CCC2=C([C@@H]1COC3=CC=CC(=C3)C)C=CS2 [RU-SKI 43] + CC1(C)CCC(c2ccc(Cl)cc2)=C(CN2CCN(c3ccc(C(=O)NS(=O)(=O)c4ccc(N[C@H](CCN5CCOCC5)CSc5ccccc5)c(S(=O)(=O)C(F)(F)F)c4)cc3)CC2)C1 [Navitoclax] (partner 0.5 µM)
Summary of the method: (§1)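 Each reported value is a median over duplicate plates. It expresses relative viability: treated-well nuclei count divided by vehicle-well nuclei count. Lung cancer cell lines in 1536-well plates were dosed by pin tool a day after seeding, alone with one drug or with a fixed anchor-drug dose plus five library-drug doses (not always all listed) in √10 steps, and nuclei were counted after 5 days.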

RU-SKI 43 + Lapatinib = compound: CC[C@@H](C)CNCC(=O)N1CCC2=C([C@@H]1COC3=CC=CC(=C3)C)C=CS2 [RU-SKI 43] + CS(=O)(=O)CCNCc1ccc(-c2ccc3ncnc(Nc4ccc(OCc5cccc(F)c5)c(Cl)c4)c3c2)o1 [Lapatinib] (partner 2 µM)
Summary of the method: as §1

Irinotecan + Vorinostat = compound: CCc1c2c(nc3ccc(OC(=O)N4CCC(N5CCCCC5)CC4)cc13)-c1cc3c(c(=O)n1C2)COC(=O)[C@]3(O)CC [Irinotecan] + O=C(CCCCCCC(=O)Nc1ccccc1)NO [Vorinostat] (partner 1 µM)
Summary of the method: as §1

MK-8033 + Dasatinib = compound: Cn1cc(-c2cnc3ccc4ccc(CS(=O)(=O)NCc5ccccn5)cc4c(=O)c3c2)cn1 [MK-8033] + Cc1nc(Nc2ncc(C(=O)Nc3c(C)cccc3Cl)s2)cc(N2CCN(CCO)CC2)n1 [Dasatinib] (partner 0.075 µM)
Summary of the method: as §1

Cell Line	relative viability (RU-SKI 43 + Navitoclax; first compound 0.1 µM)	relative viability (RU-SKI 43 + Navitoclax; first compound 0.3162 µM)	relative viability (RU-SKI 43 + Navitoclax; first compound 1 µM)	relative viability (RU-SKI 43 + Navitoclax; first compound 3.162 µM)	relative viability (RU-SKI 43 + Navitoclax; first compound 10 µM)	relative viability (RU-SKI 43 + Lapatinib; first compound 0.1 µM)	relative viability (RU-SKI 43 + Lapatinib; first compound 0.3162 µM)	relative viability (RU-SKI 43 + Lapatinib; first compound 1 µM)	relative viability (RU-SKI 43 + Lapatinib; first compound 3.162 µM)	relative viability (RU-SKI 43 + Lapatinib; first compound 10 µM)	relative viability (Irinotecan + Vorinostat; first compound 0.6325 µM)	relative viability (Irinotecan + Vorinostat; first compound 2 µM)	relative viability (Irinotecan + Vorinostat; first compound 6.325 µM)	relative viability (Irinotecan + Vorinostat; first compound 20 µM)	relative viability (MK-8033 + Dasatinib; first compound 0.02 µM)	relative viability (MK-8033 + Dasatinib; first compound 0.06325 µM)	relative viability (MK-8033 + Dasatinib; first compound 0.2 µM)	relative viability (MK-8033 + Dasatinib; first compound 0.6325 µM)	relative viability (MK-8033 + Dasatinib; first compound 2 µM)
201T	1.2	1.18	1.21	1.19	1.18	1.1	0.997	1.06	1.05	1.01	0.325	0.81	0.426	0.28	0.646	0.62	0.573	0.533	0.614
A549	1.24	1.51	1.17	1.23	1.08	0.95	1.13	1.09	0.908	0.759									
A-427	0.944	0.868	0.997		0.961	1.01	1.22	1.1		1	0.738	0.785	0.384	0.33	0.677	0.701	0.661	0.731	0.67
ABC-1						1.23	1.42	1.12	1.18	1.24		0.566	0.405	0.348	0.735	0.434	0.501	0.491	0.61
BEN	0.0754	0.0554	0.064	0.0685	0.0709	0.691	0.607	0.961	0.589	0.684	0.544	0.726	0.473	0.545	0.343	0.289	0.318	0.326	0.307
CAL-12T	1.2	1.53	1.54	1.13	1.14	0.661	0.759	0.551	0.562	0.619	0.733	0.592	0.403	0.259	0.478	0.3	0.405	0.367	0.456
COR-L23	0.971	0.628	1.11	1.04	1.07	0.982	0.845	1.3	1.04	0.996	0.169	0.184	0.199	0.0826	0.458	0.427	0.522	0.466	0.489
COR-L 105	0.909	0.61	0.648	0.858	0.595	0.411	0.344	0.379	0.376	0.351	0.856	0.643	0.621	0.334	0.368	0.303	0.328	0.335	0.402
Calu-6	0.848	0.977	0.72	0.955	0.691	1.28	1.43	1.08	1.1	0.982									
ChaGo-K-1	1.26	0.996	1.58	0.569	0.742						0.443	0.326	0.268	0.243	0.603	0.588	0.527	0.66	0.641
EBC-1	0.358	0.294	0.401	0.366	0.223	0.186	0.189	0.215	0.197	0.181									
EKVX	0.989	0.893	0.96	0.982	0.67	0.185	0.175	0.202	0.208	0.187		0.52	0.43	0.398	0.519	0.499	0.569	0.434	0.551
EMC-BAC-2	1.14	1.57	1.21	1.26	1.15	0.924	0.961	0.933	0.983	0.916	0.224	0.297	0.283	0.225	0.324	0.325	0.327	0.33	0.339
EPLC-272H	1.17	1.12	1.03		1.13	0.913	0.831	1.25		0.833	0.428	0.389	0.357	0.254	0.375	0.273	0.297	0.319	0.336
H3255	0.489	0.396	0.598	0.5	0.237	0.249	0.193	0.174	0.192	0.213		0.782	0.343	0.311	0.366	0.347	0.299	0.319	0.438
HARA	1.19	1.14	1.15	1.16	1.13	0.816	0.832	0.771	0.705	0.76		0.146	0.122	0.135	0.28	0.255	0.223	0.188	0.258
HCC-15	0.769	0.81	0.715	0.757	0.735	0.906	1.16	1.04	0.787	0.717	0.452	0.333	0.252	0.197	0.639	0.541	0.542	0.6	0.616
HCC-44	0.863	1.13	0.968	0.986	0.902	1.12	1.02	1.15	1.04	0.995	0.998	0.839	0.451	0.461					
HCC-78	0.758	0.96	1.03	0.834	0.772	0.843	0.626	1.24	0.513	0.369	0.56	0.322	0.291	0.288	0.55		0.335	0.355	0.491
